Reference: article PMC11407758, “Integrated stress response (ISR) activation and apoptosis through HRI kinase by PG3 and other p53 pathway-restoring cancer therapeutics” (Oncotarget, 2024)

How the values were obtained:
[1] = test system: HCT116 (wild-type), SW480 (R273H, P309S), and DLD1 (S241F); experiment: Cell viability assay in colorectal cancer cell lines (Figure 1E); assay type: cell-based, human; conditions: 72 h
Experimental: (§1) Figure 1 PG3 inhibits cell proliferation and growth in a p53-indepent manner. (A–E) Cell viability assay, dose response curves and IC50 value measurements in a panel of cancer cell lines and normal cells. Cells were treated with different concentrations of PG3, PG3-Oc (Oc), obatoclax (Ob), prodigiosin (P) or DMSO for 72 h. Luciferase activity was imaged by the IVIS Imaging System after treatment. Cell viability data were normalized to those of DMSO treatment control in each cell line and data analyses were performed using PRISM4 software. IC50 data are expressed as the mean ±SD (normal; n = 3).
(§2) Cells were seeded in 96-well plates (6 × 10^3 cells/well). Cells were treated with different concentrations of compounds or dimethyl sulfoxide (DMSO) as a control for 72 hours. The cell viability was assessed by CellTiterGlo bioluminescent cell viability assay (Promega), following the manufacturer’s protocol. Bioluminescence imaging was measured using the IVIS imager. The percentage of cell viability (mean ± SEM) at each dose was calculated against the respective DMSO control. The IC50 values were determined from the sigmoidal dose-response curves using GraphPad Prism.

[2] = test system: HT29 (R273H); experiment: Cell viability assay (CellTiterGlo), HT29; assay type: cell-based, human; conditions: Homo sapiens, HT-29; 72 h, CellTiterGlo
Experimental: as §1
as §1, with “2 p53-dependent inhibition of” for “1 PG3 inhibits”, “is only observed at specific concentrations. (A–J)” for “and growth in a p53-indepent manner. (A–E)”, “ZMC1, CP-313908, APR-246, Ellipticine, Nutalin-3a” for “PG3, PG3-Oc (Oc), obatoclax (Ob), prodigiosin (P)”
as §2

[3] = test system: TOV-112D (R175H); experiment: Cell viability assay (CellTiterGlo), TOV-112D; assay type: cell-based, human; conditions: Homo sapiens, TOV112D; 72 h, CellTiterGlo; read-out: IC50 values, TOV-1120 (R175H) (converted)
Experimental: as §1
as §1, with “2 p53-dependent inhibition of” for “1 PG3 inhibits”, “is only observed at specific concentrations. (A–J)” for “and growth in a p53-indepent manner. (A–E)”, “ZMC1, CP-313908, APR-246, Ellipticine, Nutalin-3a” for “PG3, PG3-Oc (Oc), obatoclax (Ob), prodigiosin (P)”
as §2

[4] = test system: HCT116 (P53−/−); experiment: Cell viability assay (CellTiterGlo), HCT116 p53-/-; assay type: cell-based, human; conditions: Homo sapiens, HCT-116; 72 h, CellTiterGlo
Experimental: as §1
as §1, with “2 p53-dependent inhibition of” for “1 PG3 inhibits”, “is only observed at specific concentrations. (A–J)” for “and growth in a p53-indepent manner. (A–E)”, “ZMC1, CP-313908, APR-246, Ellipticine, Nutalin-3a” for “PG3, PG3-Oc (Oc), obatoclax (Ob), prodigiosin (P)”
as §2

[5] = test system: HCT116 (WT); experiment: Cell viability assay (CellTiterGlo), HCT116 WT; assay type: cell-based, human; conditions: Homo sapiens, HCT-116; 72 h, CellTiterGlo
Experimental: as §1
as §1, with “2 p53-dependent inhibition of” for “1 PG3 inhibits”, “is only observed at specific concentrations. (A–J)” for “and growth in a p53-indepent manner. (A–E)”, “ZMC1, CP-313908, APR-246, Ellipticine, Nutalin-3a” for “PG3, PG3-Oc (Oc), obatoclax (Ob), prodigiosin (P)”
as §2

[6] = test system: HCT116 (R175H); experiment: Cell viability assay (CellTiterGlo), HCT116 R175H; assay type: cell-based, human; conditions: Homo sapiens, HCT-116; 72 h, CellTiterGlo
Experimental: as §1
as §1, with “2 p53-dependent inhibition of” for “1 PG3 inhibits”, “is only observed at specific concentrations. (A–J)” for “and growth in a p53-indepent manner. (A–E)”, “ZMC1, CP-313908, APR-246, Ellipticine, Nutalin-3a” for “PG3, PG3-Oc (Oc), obatoclax (Ob), prodigiosin (P)”
as §2

[7] = test system: HFF-1 (human foreskin fibroblast cell with wild-type p53); experiment: Cell viability assay (CellTiterGlo), HFF-1 normal cells; assay type: cell-based; conditions: Homo sapiens, HFF-1; 72 h, CellTiterGlo, normal cells; read-out: IC50 values, HFF-l (WT)
Experimental: as §1
as §1, with “2 p53-dependent inhibition of” for “1 PG3 inhibits”, “is only observed at specific concentrations. (A–J)” for “and growth in a p53-indepent manner. (A–E)”, “ZMC1, CP-313908, APR-246, Ellipticine, Nutalin-3a” for “PG3, PG3-Oc (Oc), obatoclax (Ob), prodigiosin (P)”
as §2

[8] = test system: MRC5 (human lung fibroblast cell with wild-type p53); experiment: Cell viability assay (CellTiterGlo), MRC5 normal cells; assay type: cell-based; conditions: Homo sapiens, MRC5, 72 h, read-out: IC50 values, MRC5 (WT)
Experimental: as §1
as §1, with “2 p53-dependent inhibition of” for “1 PG3 inhibits”, “is only observed at specific concentrations. (A–J)” for “and growth in a p53-indepent manner. (A–E)”, “ZMC1, CP-313908, APR-246, Ellipticine, Nutalin-3a” for “PG3, PG3-Oc (Oc), obatoclax (Ob), prodigiosin (P)”
as §2

[9] = test system: HT29, TOV-112D, isogenic HCT116 cell lines, HFF-1 and MRC5; experiment: Cell viability assay, panel of cancer cell lines and normal cells (results in words); assay type: cell-based, human; conditions: 10 μM; all cell lines tested and normal cells
Experimental: as §1, with “2 p53-dependent inhibition of” for “1 PG3 inhibits”, “is only observed at specific concentrations. (A–J)” for “and growth in a p53-indepent manner. (A–E)”, “ZMC1, CP-313908, APR-246, Ellipticine, Nutalin-3a” for “PG3, PG3-Oc (Oc), obatoclax (Ob), prodigiosin (P)”
as §2

[10] = test system: SW480 cells carrying a p53-responsive luciferase reporter; experiment: p53-responsive reporter assay; assay type: cell-based, human
Experimental: SW480 cells carrying a p53-responsive luciferase reporter were used for assay of functional restoration of mutant p53. Cells were seeded in 96-well plates (5 × 10^4 cells/well) and were treated with compounds indicated for 6 and 15 h, respectively. Then, D-luciferin was added to each well with final concentration 100 μg/mL, and cells were imaged by using an IVIS Imaging System to detect luciferase activity.
p53-mutant SW480 human colon cancer cells, stably expressing a p53-responsive luciferase reporter, were used to assay functional restoration p53 pathway-dependent transcription in mutant p53-expressing tumor cells. Cells were seeded in 96-well plates (5 × 10^4 cells/well) and were treated with small-molecule compounds for 6 and 15 h, respectively. Then, D-luciferin was added to each well at a final concentration of 100 μg/mL, and cells were imaged by using an IVIS Imaging System (Xenogen) to detect luciferase activity.

[11] = test system: ATF4; experiment: Western blot, ATF4 induction; assay type: cell-based, human; conditions: five cancer cell lines, 24 h
Experimental: (§3) Figure 4 Activation of ATF4 and up-regulation of typical p53 target genes. (A–E) Western blot analysis of p53 protein levels and upregulation of ATF4, PUMA, DR5 and p21. Cells were treated for 24 h with indicated compounds, concentrations and cell lines. Abbreviations: S.E.: Short exposure; L.E.: Long exposure.
(§4) After treatment, protein lysates were collected for Western blot analysis. A total of 15 μg of protein was used for SDS-PAGE. After primary and secondary antibody incubations, the signal was detected by a chemiluminescence detection kit, imaged by Syngene (Imgen Technologies). Antibodies for NAG-1 (GDF15) and P53 were from Santa Cruz Biotechnology; for caspase 8, cleaved caspase 8, caspase 9, caspase 3, cleavage PARP, eIF2α, p-eIF2α (Ser51), CHOP, ATF4, DR5, and PUMA were from Cell Signaling Technology. Noxa and p21 were from Calbiochem. Ran was from BD Biosciences.

[12] = test system: p53 protein; experiment: Western blot, p53 protein levels; assay type: cell-based, human
Experimental: Cells were treated for 24 h with indicated compounds, concentrations and cell lines. Abbreviations: S.E.: Short exposure; L.E.: Long exposure.
as §4

[13] = test system: DR5; experiment: Western blot, DR5 induction; assay type: cell-based, human; conditions: five cell lines, 24 h
Experimental: as §3, §4

[14] = test system: PUMA; experiment: Western blot, PUMA induction; assay type: cell-based, human; conditions: five cell lines, 24 h
Experimental: as §3, §4

[15] = test system: p21; experiment: Western blot, p21 induction; assay type: cell-based, human; conditions: five cell lines, 24 h
Experimental: as §3, §4

[16] = cited from earlier work
[17] = test system: GCN2, PKR, eIF2α, ATF4, CHOP in HT29 cells; experiment: Western blot, ISR kinases / eIF2α / ATF4 / CHOP; assay type: cell-based, human; conditions: HT29, 20 hours; comparable to ONC201
Experimental: Figure 7 PG3 induces upregulation of ATF4 through ISR via HRI. (A) HT29 cells were treated with PG3, GSK2606414, TG and ONC201 respectively, or co-treatment with PG3/GSK2606414, PG3/TG, and PG3/ONC201 for 15 h. (B) MEF, MEF^PERK−/− and MEF^GCN2−/− cells were treated with PG3 and ONC201 for 16 hours. (C) HT29 cells were transfected with siControl, siPKR, siHRI and siPKR/siHRI for 24 hours and then treated with PG3 for 16 hours. (D) HCT116 p53^−/− cells were transfected with siControl and siHRI for 24 hours and then treated with PG3 for 16 hours. (E) HCT116 p53^−/− cells were treated with PG3 and ONC201 for indicated times. (F) PANC1-sgCtrl, -sgHRI and -sgPKR cell lines were treated with PG3 and imipridones (ONC201, ONC206 and ONC212) for 16 hours. Western blot was performed using indicated antibodies. (G) Proposed model of PG3-induced cell apoptosis through HRI/ATF4/PUMA axis. Abbreviation: L.E.: Long exposure.
as §4
(§5) Supplementary Figure 2: ROS and NO are not responsible for PG3-induced HRI activation. (A, B) cells were pre-treated
(§6) with ZnPP, L-NMMA, SA and NAC for 2 hours respectively, and then ONC201 or PG3 was added to the medium for 24 hour treatment.
(§7) Western blot was performed using indicated antibodies.
(§8) (1 picture or pasted object on this page, not shown here)

[18] = test system: ALAS1, UROD; experiment: Western blot, heme biosynthesis enzymes; assay type: cell-based, human; conditions: HT29, 20 hours
Experimental: Figure 8 Inhibition of heme biosynthesis leads to upregulation of ATF4. (A) HT29 cells were treated with SA and ONC201 for 20 hours. Western blotting was performed using the indicated antibodies. (B) HT29 cells were transfected with siCtrl, siHRI, siClpX, siALAS1, siClpX/siALAS1 and siClpX/siALAS1/siHRI for 48 hours. (C) HT29 cells were transfected with siCtrl, siLonP1, siClpP for 24 or 48 hours respectively, and then treated with ONC201 for 24 hours. (D) Proposed model of ONC201-induced cell apoptosis through ClpP/ALAS1/HRI/ATF4 axis. (E, F) Silencing of ClpP in HCT116 p53^−/− and MDA-MB-468 cells and then treated with PG3, PG3-Oc and ONC201. Western blot was performed using indicated antibodies.
as §4, §5, §6, §7, §8

## COC1=CC(c2cc3ccccc3[nH]2)=N/C1=C\c1[nH]c(C)cc1C [Obatoclax]
[1]
  potency compared among PG3-Oc, prodigiosin and Obatoclax: same potency

## CCCCCCCCOC(=O)CCc1c(C)[nH]c(/C=C2\N=C(c3ccc[nH]3)C=C2OC)c1C [PG3-Oc]
[2]
  IC50: 31 nM
[3]
  IC50: 38 nM
[4]
  IC50: 62 nM
[5]
  IC50: 47 nM
[6]
  IC50: 52 nM
[7]
  IC50: 306 nM
[8]
  IC50: 78 nM
[9]
  toxicity at 10 μM: too toxic
[1]
  potency compared among PG3-Oc, prodigiosin and Obatoclax: same potency
[10]; 1.11 μM, 6 hour and 15 hour time points
  p53-responsive reporter activity: do not activate reporter activity
[10]; 10 μM, 6 hours
  p53-responsive reporter activity: activation
[11]
  upregulation of ATF4: induce upregulation of ATF4
[12]; HCT116, 24 h
  wild-type p53 protein level: do not upregulate expression
[12]; HT29, 24 h
  endogenous mutant p53 R273H protein level: no effects on stability
[12]; TOV-112D, 24 h
  endogenous mutant p53 R175H protein level: no effects on stability
[12]; engineered HCT116-R175H cells, 24 h
  exogenous mutant p53 R175H protein level: stabilize
[13]
  upregulation of DR5: consistently induce upregulation
[14]
  upregulation of PUMA: consistently induce upregulation
[15]
  upregulation of p21: consistently induce upregulation
[16]
  stability in vivo: unstable in vivo

## CC(=O)CC(=O)CCC(=O)O [SA, Succinylacetone]
[17]
  eIF2α phosphorylation, ATF4 and CHOP: eIF2α phosphorylation and upregulation of ATF4 and CHOP
[18]
  ALAS1 protein level: upregulation of ALAS1

## prodigiosin
[1]
  potency compared among PG3-Oc, prodigiosin and Obatoclax: same potency
